Experimental data as given in patent US8329699B2, “Pyrrolopyrazine kinase inhibitors” (Hoffmann-La Roche Inc., priority 2010, dated 2012).
Where a name gives a salt, the structure may show the parent alone.

Assays:
[1] = molecular target: T1, JAK3: Recombinant human kinase domain (h-jak3-sf21-c) (Homo sapiens, UniProt P52333); experiment: Determination of IC50 of Janus Kinase (JAK) inhibition, JAK3 (radioactive end-point assay with 33P-ATP); assay type: biochemical; conditions: ATP 1.5 uM, peptide 50 uM, 20 minutes, room temperature
T1 construct: JAK3: Recombinant human kinase domain from Millipore (Cat # 14-629) or prepared; purchased Millipore 14-629
T1 sequence (P52333 822-1111 limits assumed): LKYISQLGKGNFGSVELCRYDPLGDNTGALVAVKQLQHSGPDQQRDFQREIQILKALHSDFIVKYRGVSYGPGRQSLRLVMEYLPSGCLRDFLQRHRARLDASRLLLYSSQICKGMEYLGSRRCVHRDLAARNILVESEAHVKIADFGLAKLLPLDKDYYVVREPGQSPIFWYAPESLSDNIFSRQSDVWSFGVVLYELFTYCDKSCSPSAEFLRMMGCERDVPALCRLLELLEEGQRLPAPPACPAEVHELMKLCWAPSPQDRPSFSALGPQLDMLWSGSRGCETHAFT
From the text: Determination of IC50 of Janus Kinase (JAK) Inhibition:
Enzymes and peptide substrate used are described below: • JAK1: Recombinant human kinase domain from Invitrogen (Cat # PV4774) • JAK3: Recombinant human kinase domain from Millipore (Cat # 14-629) or prepared. • JAK2: Recombinant human kinase domain from Millipore (Cat # 14-640) • Substrate: N-terminally biotinylated 14-mer peptide derived from activation loop of JAK1 with sequence of the peptide substrate: Biotin-[…]
Assay conditions used are described below: • Assay Buffer: JAK Kinase Buffer: 50 mM Hepes [pH 7.2], 10 mM MgCl2, 1 mM DTT, 1 mg/mL BSA. The assay is carried out in this buffer. • Assay Format The kinase activity of all three JAK kinases is measured using a radioactive, end-point assay and with trace amounts of^33P-ATP. The assays are carried out in 96-well polypropylene plates. Experimental Method:
All concentrations are final in the reaction mixture and all incubations are carried at room temperature. Assay steps are described below: • 1) Compounds are serially diluted in 100% DMSO typically at a 10× starting concentration of 1 mM. Final concentration of DMSO in the reaction is 10%. • 2) Compounds are preincubated with enzyme (0.5 nM JAK3 (commercially available), 0.2 nM JAK3 (prepared), 1 nM JAK2, 5 nM JAK1) for 10 minutes. • 3) Reactions are initiated by the addition of a cocktail of the two substrates (ATP and peptide premixed in the JAK Kinase Buffer). In the JAK2/JAK3 assays, ATP and the peptide are used at concentrations of 1.5 uM and 50 uM, respectively. JAK1 assay is carried out at an ATP concentration of 10 uM and a peptide concentration of 50 uM. • 4) The duration of the assay for JAK2 and JAK3 is 20 minutes. JAK1 assay is carried out for 40 minutes. With all three enzymes, reactions are terminated by the addition of 0.5M EDTA to a final concentration of 100 mM. • 5) 25 ul of terminated reactions are transferred to 150 ul of a 7.5% (v/v) slurry of streptavidin-coated sepharose beads in MgCl2- and CaCl2-free 1× Phosphate Buffered Saline containing 50 mM of EDTA in 96-well, 1.2 um MultiScreen-BV filter plates. • 6) After a 30-minute incubation, the beads are washed under vacuum with the following buffers: • a. 3 to 4 washes with 200 ul of 2M NaCl. • b. 3 to 4 washes with 200 ul of 2M NaCl plus 1% (v/v) phosphoric acid. • c. 1 wash with water. • 7) Washed plates are dried in a 60° C. oven for between 1 to 2 hours. • 8) 70 ul of Microscint 20 scintillation fluid is added to each well of filter plates and after at least 30 minutes of incubation, radioactive counts are measured in a Perkinelmer microplate scintillation counter.

| melting point [°C] | IC50 [1] [nM] | SMILES |
| --- | --- | --- |
| 200 to 203 |  | CC(C)(O)C1(NC(=O)c2c[nH]c3ncc(C4CC4)nc23)CCNC1 (centres unmarked) (as salt: hydrochloride) [Compound I-17, 2-Cyclopropyl-5H-pyrrolo[2,3-b]pyrazine-7-carboxylic acid [3-(1-hydroxy-1-methyl-ethyl)-pyrrolidin-3-yl]-amide] |
| > 300 | 10 | N#C[C@@H]1CCC[C@@H]1NC(=O)c1c[nH]c2ncc(C3CC3)nc12 (relative stereo) [Compound I-25, 2-Cyclopropyl-5H-pyrrolo[2,3-b]pyrazine-7-carboxylic acid ((cis)-2-cyano-cyclopentyl)-amide] |
| > 300 | 9.8 | CC1(C)COCC1NC(=O)c1c[nH]c2ncc(C3CC3)nc12 (centres unmarked) [Compound I-16, 2-Cyclopropyl-5H-pyrrolo[2,3-b]pyrazine-7-carboxylic acid (4,4-dimethyl-tetrahydro-furan-3-yl)-amide] |
|  | 10000 | CC(C)(O)C1(NC(=O)c2c[nH]c3ncc(C4CC4)nc23)CCNC1 (centres unmarked) [Compound I-17, 2-Cyclopropyl-5H-pyrrolo[2,3-b]pyrazine-7-carboxylic acid [3-(1-hydroxy-1-methyl-ethyl)-pyrrolidin-3-yl]-amide] |
| 213 to 215 | 342 | CC(C)(O)C1(NC(=O)c2c[nH]c3ncc(C4CC4)nc23)CCOC1 (centres unmarked) [Compound I-18, 2-Cyclopropyl-5H-pyrrolo[2,3-b]pyrazine-7-carboxylic acid [3-(1-hydroxy-1-methyl-ethyl)-tetrahydro-furan-3-yl]-amide] |
| 296 to 299 | 1040 | O=C(NC1(C(=O)C2CC2)CCCC1)c1c[nH]c2ncc(C3CC3)nc12 [Compound I-19, 2-Cyclopropyl-5H-pyrrolo[2,3-b]pyrazine-7-carboxylic acid (1-cyclopropanecarbonyl-cyclopentyl)-amide] |
| > 300 | 35.4 | CS(=O)(=O)N1CCC(NC(=O)c2c[nH]c3ncc(C4CC4)nc23)C1 (centres unmarked) [Compound I-20, 2-Cyclopropyl-5H-pyrrolo[2,3-b]pyrazine-7-carboxylic acid (1-methanesulfonyl-pyrrolidin-3-yl)-amide] |
| 278 to 280 | 96.2 | CS(=O)(=O)N1CCC(NC(=O)c2c[nH]c3ncc(C4CC4)nc23)CC1 [Compound I-21, 2-Cyclopropyl-5H-pyrrolo[2,3-b]pyrazine-7-carboxylic acid (1-methanesulfonyl-piperidin-4-yl)-amide] |
|  | 2.1 | CC1(C)CCN(S(C)(=O)=O)CC1NC(=O)c1c[nH]c2ncc(C3CC3)nc12 (centres unmarked) [Compound I-35, 2-Cyclopropyl-5H-pyrrolo[2,3-b]pyrazine-7-carboxylic acid (1-methanesulfonyl-4,4-dimethyl-piperidin-3-yl)-amide] |
|  | 0.3 | CCn1cc(-c2cnc3[nH]cc(C(=O)NC4CCCCC4(C)C)c3n2)cn1 (centres unmarked) [Compound I-39, 2-(1-Ethyl-1H-pyrazol-4-yl)-5H-pyrrolo[2,3-b]pyrazine-7-carboxylic acid (2,2-dimethyl-cyclohexyl)-amide] |
|  | 50.2 | CC(=O)N[C@@H]1CCc2ccc(Oc3cnc4[nH]cc(C(=O)NC5CCCCC5)c4n3)cc21 [Compound I-40, 2-((R)-3-Acetylamino-indan-5-yloxy)-5H-pyrrolo[2,3-b]pyrazine-7-carboxylic acid cyclohexylamide] |
|  | 2160 | CC(=O)N[C@@H]1CCc2ccc(Oc3cnc4[nH]cc(C(=O)NC5CCS(=O)(=O)CC5)c4n3)cc21 [Compound I-41, 2-((R)-3-Acetylamino-indan-5-yloxy)-5H-pyrrolo[2,3-b]pyrazine-7-carboxylic acid (1,1-dioxo-hexahydro-1λ6-thiopyran-4-yl)-amide] |

More lines, now with the values behind:

| SMILES | melting point [°C] | IC50 [1] [nM] |
| --- | --- | --- |
| C[C@]1(O)CCC[C@@H]1NC(=O)c1c[nH]c2ncc(C3CC3)nc12 (relative stereo) [Compound I-11, 2-Cyclopropyl-5H-pyrrolo[2,3-b]pyrazine-7-carboxylic acid ((trans)-2-hydroxy-2-methyl-cyclopentyl)-amide] | 260 to 262 | 12.9 |
| O=C(NC1CCOCC1)c1c[nH]c2ncc(C3CC3)nc12 [Compound I-1, 2-Cyclopropyl-5H-pyrrolo[2,3-b]pyrazine-7-carboxylic acid (tetrahydro-pyran-4-yl)-amide] | > 300 | 42 |
| O=C(NC1(CO)CCOCC1)c1c[nH]c2ncc(C3CC3)nc12 [Compound I-2, 2-Cyclopropyl-5H-pyrrolo[2,3-b]pyrazine-7-carboxylic acid (4-hydroxymethyl-tetrahydro-pyran-4-yl)-amide] | 294 to 296 | 674 |
| O=C(NC1(CO)CCCC1)c1c[nH]c2ncc(C3CC3)nc12 [Compound I-3, 2-Cyclopropyl-5H-pyrrolo[2,3-b]pyrazine-7-carboxylic acid (1-hydroxymethyl-cyclopentyl)-amide] | 272 to 274 | 44.2 |
| CC1(C)OCCC1NC(=O)c1c[nH]c2ncc(C3CC3)nc12 (centres unmarked) [Compound I-4, 2-Cyclopropyl-5H-pyrrolo[2,3-b]pyrazine-7-carboxylic acid (2,2-dimethyl-tetrahydro-furan-3-yl)-amide] | > 300 | 5.3 |
| N#Cc1cccc(NC(=O)c2c[nH]c3ncc(C4CC4)nc23)c1 [Compound I-5, 2-Cyclopropyl-5H-pyrrolo[2,3-b]pyrazine-7-carboxylic acid (3-cyano-phenyl)-amide] | 272 to 274 | 735 |
| O=C(NC1CCCOC1)c1c[nH]c2ncc(C3CC3)nc12 (centres unmarked) [Compound I-6, 2-Cyclopropyl-5H-pyrrolo[2,3-b]pyrazine-7-carboxylic acid (tetrahydro-pyran-3-yl)-amide] | > 300 | 15.6 |
| CC1(C)CCCC1NC(=O)c1c[nH]c2ncc(C3CC3)nc12 (centres unmarked) [Compound I-7, 2-Cyclopropyl-5H-pyrrolo[2,3-b]pyrazine-7-carboxylic acid (2,2-dimethyl-cyclopentyl)-amide] | > 300 | 1.1 |
| O=C(Nc1cccc(C(F)(F)F)c1)c1c[nH]c2ncc(C3CC3)nc12 [Compound I-8, 2-Cyclopropyl-5H-pyrrolo[2,3-b]pyrazine-7-carboxylic acid (3-trifluoromethyl-phenyl)-amide] | 271.1 to 272.9 | 963 |
| Cc1ccc(C#N)cc1NC(=O)c1c[nH]c2ncc(C3CC3)nc12 [Compound I-9, 2-Cyclopropyl-5H-pyrrolo[2,3-b]pyrazine-7-carboxylic acid (5-cyano-2-methyl-phenyl)-amide] | 280 to 284 | 157 |
| N#CC1(NC(=O)c2c[nH]c3ncc(C4CC4)nc23)CC1 [Compound I-10, 2-Cyclopropyl-5H-pyrrolo[2,3-b]pyrazine-7-carboxylic acid (1-cyano-cyclopropyl)-amide] | > 300 | 524 |
| CC(C)(O)C1(NC(=O)c2c[nH]c3ncc(C4CC4)nc23)CCCC1 [Compound I-12, 2-Cyclopropyl-5H-pyrrolo[2,3-b]pyrazine-7-carboxylic acid [1-(1-hydroxy-1-methyl-ethyl)-cyclopentyl]-amide] | 232 to 234 | 49.7 |
| CC(C)(O)C1(NC(=O)c2c[nH]c3ncc(C4CC4)nc23)CCC1 [Compound I-13, 2-Cyclopropyl-5H-pyrrolo[2,3-b]pyrazine-7-carboxylic acid [1-(1-hydroxy-1-methyl-ethyl)-cyclobutyl]-amide] | 264 to 266 | 42.7 |
| CC(C)(O)C1(NC(=O)c2c[nH]c3ncc(C4CC4)nc23)CCCCC1 [Compound I-14, 2-Cyclopropyl-5H-pyrrolo[2,3-b]pyrazine-7-carboxylic acid [1-(1-hydroxy-1-methyl-ethyl)-cyclohexyl]-amide] | 228 to 230 | 38.9 |
| O=C(N[C@H]1CCOC[C@@H]1O)c1c[nH]c2ncc(C3CC3)nc12 [Compound I-15, 2-Cyclopropyl-5H-pyrrolo[2,3-b]pyrazine-7-carboxylic acid ((3R,4S)-3-hydroxy-tetrahydro-pyran-4-yl)-amide] |  | 423 |
